Laboratory results as given in publication PMC12741935 (Alzheimer's & Dementia, 2025).

Experiments:
[1] = system: 14 DIV mouse hippocampal neurons; assay: oAβ-induced spine loss: drebrin-positive spine density in cultured hippocampal neurons; type: cell-based; conditions: oAβ 1 µM + inhibitor 24 h vs oAβ alone; NVS-PAK1-1 10 nM, NVS-PAK1-C 10 nM, AZ13705339 1 nM, G5555 5 nM
Experimental: (§1) For in vitro study, all animal procedures were conducted in accordance with the National Institutes of Health Guide for the Care and Use of Laboratory Animals using protocols approved by the institutional animal care and use committee at Stanford University. Timed pregnant C57BL/6 mice (Strain code: 027) were purchased from Charles River Laboratories and delivered on embryonic day 15 (E15), after which E16 embryos were used for primary hippocampal cultures. Primary embryonic mouse hippocampal neuron cultures were plated on poly‐D‐lysine‐coated (10 µg/mL) glass cover slips at 40,000 to 50,000 cells per well in 12‐well plates (Corning Life Sciences). Cells were seeded in plating medium DMEM/F12 supplemented with 10% fetal bovine serum and 1 × penicillin/streptomycin (PS) for 2 hours. Medium was then changed to B‐27 Plus Neuronal Culture System (Invitrogen) supplemented with PS, and 2 mM glutamine.
(§2) Immunofluorescence was performed as described previously.[24] Briefly, cultured hippocampal neurons were fixed in 4% formaldehyde for 20 minutes, permeabilized for 6 minutes in 80% ice‐cold methanol, and incubated with primary antibodies at 4°C overnight. Primary antibodies used were rabbit polyclonal MAP2 antibody for labeling dendrites (1:1000, #8707, Cell Signaling) and mouse monoclonal drebrin antibody for labeling dendritic spines (1:300; Cat#ADI‐NBA‐110, Enzo). Secondary antibodies consisted of donkey antirabbit or antimouse conjugated with either FITC or Cy3 (1:400; Jackson ImmunoResearch Laboratories, Inc.).
(§3) The cultured hippocampal neurons were imaged using an oil‐based 63x objective on a Leica Stellaris 5 confocal microscope. The cell nucleus was stained with DAPI and imaged at a wavelength of 405 nm (blue channel), the dendrites stained by MAP2 were imaged at 488 nm wavelength (green channel), and the drebrin‐stained spines were imaged at a wavelength of 561 nm (red channel). Z‐stack images of neurons were acquired at a 1024 × 1024 resolution, a zoom factor of 1.0, and a z‐step size of 0.5 µm. The number of steps for every z‐stack picture of a neuron were determined by the size of the neuron in the z‐plane, to ensure that the entirety of a neuron is captured in the picture. The areas to be imaged were selected systematically, starting from the top‐left region to proceeding to the bottom‐right region of a coverslip. For imaging, preference was given to field of views containing isolated neurons versus clustered neurons.
For quantification of drebrin‐positive spines in vitro, the images were analyzed using Imaris 9.3 software. Each image consisted of one major neuron and the “filaments” option in Imaris was applied to manually trace along the dendrites of every neuron, by placing starting and seed points at the beginning and along the length of the dendrites, respectively. The largest dendrite diameter (i.e., Starting Point) was set at 9.00 µm threshold while the thinnest dendrite diameter (i.e., Seed Point) was set at 1.00 µm threshold. After manually tracing the dendrites, the spines along the dendrites were assessed using the automatic “spine detection” function in Imaris. […] The spine density (number of spines/dendrite length) was then calculated for each neuron. All image acquisition and quantification were performed in a blind manner. For in vitro quantification of dendrite degeneration, Neurolucida (MBF Biosciences) in the manual mode was used to measure the total dendritic length, numbers of dendrites, and dendritic complexity for each neuron.

[2] = system: 14 DIV mouse hippocampal neurons; assay: oTau-induced spine loss: drebrin-positive spine density in cultured hippocampal neurons; type: cell-based; conditions: oTau 50 nM + inhibitor 24 h vs oTau alone; NVS-PAK1-1 10 nM, NVS-PAK1-C 10 nM, AZ13705339 1 nM, G5555 5 nM
Experimental: as §1, §2
The cultured hippocampal neurons were imaged using an oil‐based 63x objective on a Leica Stellaris 5 confocal microscope. The cell nucleus was stained with DAPI and imaged at a wavelength of 405 nm (blue channel), the dendrites stained by MAP2 were imaged at 488 nm wavelength (green channel), and the drebrin‐stained spines were imaged at a wavelength of 561 nm (red channel). […] The number of steps for every z‐stack picture of a neuron were determined by the size of the neuron in the z‐plane, to ensure that the entirety of a neuron is captured in the picture. […]
For quantification of drebrin‐positive spines in vitro, the images were analyzed using Imaris 9.3 software. […] After manually tracing the dendrites, the spines along the dendrites were assessed using the automatic “spine detection” function in Imaris. […] The spine density (number of spines/dendrite length) was then calculated for each neuron. All image acquisition and quantification were performed in a blind manner. For in vitro quantification of dendrite degeneration, Neurolucida (MBF Biosciences) in the manual mode was used to measure the total dendritic length, numbers of dendrites, and dendritic complexity for each neuron.

[3] = system: 14 DIV hippocampal neurons; assay: oAβ-induced dendrite degeneration (MAP2 dendrite length, number, complexity) in cultured hippocampal neurons; type: cell-based, mouse; conditions: oAβ 1 µM + inhibitor 24 h vs oAβ alone, NVS-PAK1-1 10 nM, AZ 1 nM, G 5 nM; for total dendrite length per neuron: PAK1-C 10 nM
Experimental: as §1, §2, §3
(§4) For quantification of drebrin‐positive spines in vitro, the images were analyzed using Imaris 9.3 software. Each image consisted of one major neuron and the “filaments” option in Imaris was applied to manually trace along the dendrites of every neuron, by placing starting and seed points at the beginning and along the length of the dendrites, respectively. The largest dendrite diameter (i.e., Starting Point) was set at 9.00 µm threshold while the thinnest dendrite diameter (i.e., Seed Point) was set at 1.00 µm threshold. After manually tracing the dendrites, the spines along the dendrites were assessed using the automatic “spine detection” function in Imaris. The thinnest spine diameter was set at 0.80 µm threshold while the maximum spine length was set at 5.00 µm. The spine density (number of spines/dendrite length) was then calculated for each neuron. All image acquisition and quantification were performed in a blind manner. For in vitro quantification of dendrite degeneration, Neurolucida (MBF Biosciences) in the manual mode was used to measure the total dendritic length, numbers of dendrites, and dendritic complexity for each neuron.

[4] = system: 14 DIV hippocampal neurons; assay: oTau-induced dendrite degeneration (MAP2 dendrite length, number) in cultured hippocampal neurons; type: cell-based, mouse; conditions: oTau 50 nM + inhibitor 24 h vs oTau alone, NVS-PAK1-1 10 nM, AZ 1 nM, G 5 nM; for total dendrite length per neuron: PAK1-C 10 nM
Experimental: as §1, §2, §3, §4

[5] = system: kinome; broad panel of proteases, receptors, and bromodomains; conditions: cited from earlier work

Row | SMILES | drebrin-stained spine density (spine counts per µm of dendritic length) [1] | drebrin-stained spine density (spine counts per µm of dendritic length) [2] | dendrite number per neuron [3] | total dendrite length per neuron [3] | dendrite number per neuron [4] | total dendrite length per neuron [4] | off-target kinase inhibition [5]
1 | CNc1ncc2cc(-c3ccc(-c4cccc(C)n4)cc3Cl)c(=O)n(C[C@H]3OC[C@H](N)CO3)c2n1 [G5555] | significantly higher spine counts | significantly higher spine counts | significantly increased dendrite number per neuron | Neither G nor PAK1‐C showed a significant dendrite length difference | significantly increased dendrite number per neuron | Neither G nor PAK1‐C showed a significant dendrite length difference | inhibit off‐target kinases
2 | CN(C)C(=O)N1CC[C@H](N=C2Nc3cc(F)ccc3N(CC(F)F)c3ccc(Cl)cc32)C1 [NVS‐PAK1‐C] | not reflected | not reflected |  | Neither G nor PAK1‐C showed a significant dendrite length difference |  | Neither G nor PAK1‐C showed a significant dendrite length difference | 
3 | CCS(=O)(=O)c1cc(Nc2ncc(F)c(N(Cc3ccccc3C#N)c3cc(CO)ccc3C)n2)ccc1N1CCN(C)CC1 [AZ13705339] | significantly higher spine counts | significantly higher spine counts | significantly increased dendrite number per neuron | preserved dendrite length | significantly increased dendrite number per neuron | preserved dendrite length | inhibit off‐target kinases
